39 compounds from US20240408064A1, “RAS INHIBITORS, COMPOSITIONS AND METHODS OF USE THEREOF” (GENETOLEAD INC., priority 2021, published 2024) can be followed below.

Values joined by “and” are separate entries in the source; they are usually repeats but may differ in a detail not shown here. Equal entries are not always repeated.

In assay [1] the target is T1, HRas^G12V (Homo sapiens (Human), UniProt P01112, G12V). Description: 19F T2-CPMG NMR score. It counts as binding. How it is done:
(§1) All NMR experiments were collected using 3 mm NMR tubes on a 600 MHz Bruker Avance III spectrometer equipped with a QCI helium cryoprobe and a SampleJet sample changer. The buffer used for NMR experiments was 25 mM sodium phosphate pH 7.4, 150 mM NaCl, 5 mM MgCl2, 1 mM TCEP-d16, 10% D2O. Data were processed using Bruker TopSpin.
(§2) Since the fragment library was curated using phosphate buffer, 25 mM sodium phosphate pH 7.4, 150 mM NaCl, 5 mM MgCl2, 1 mM TCEP-d16, 10% D2O Fresh TCEP was used for experiments. Screening was performed using ^1H-decoupled 1D ^19F experiment Bruker experiment (zgfhigqn.2) with 64 scans and a relaxation delay of 5 seconds. 50 μM HRas^G12V and 240 μM of each fragment in pools (mixtures) were used.
(§3) Hit confirmation was performed using the same ^19F experiment as the screen. Ligand-observed 1D ^1H, protein-observed 1D ^1H, ^1H T2-CPMG as well as Saturation Transfer Difference (STD) experiments were also run on the same samples. Ligand-observed 1D ^1H was run using the standard Bruker sequence with excitation sculpting (zgesgp) with a relaxation delay of 10 seconds and 16 scans per spectrum. Protein-observed 1D ^1H was performed using the same sequence with a relaxation delay of 1 second and 256 scans in order to increase the signal-to-noise of the protein resonances, while keeping the experimental time relatively short. The ^1H T2-CPMG experiment employed a modified version of the Bruker 1D ^1H zgesgp experiment with the addition of a CPMG pulse train after the first 90° excitation pulse. Total duration for each spin echo was fixed at 1 ms (τ=500 μs), while the number of echoes in the pulse train was varied according to the total time (T). The number of scans for each spectrum was 4 and eight delay times were run on each sample, ranging from 1 ms to 800 ms.
Because of its power to probe the intrinsically weak interactions (Kd) between targets and low-molecular weight fragments, NMR fragment-based lead discovery (FBLD) is a very useful biophysical method in early stage drug discovery, especially for challenging target proteins; including those with shallow binding pockets. Since FBLD screens are performed using low-molecular weight compounds (fragments) with lower structural complexity, the same chemical space can be covered using a smaller number of drug-like fragments versus use of large libraries of higher-molecular weight lead-like compounds as in high throughput screening (HTS) campaigns. Therefore, FBLD has a much higher hit rate than HTS using only several hundred to several thousand compounds in comparison with approximately 1 million compounds for HTS. Also, the small size of the compounds screened in FBLD means a better chance to fully match the interactions with small or transient pockets within the target protein, where these less tractable pockets cannot be accessed with standard classical HTS methods. […] We expect this methodology to be more advantageous than classical HTS methods for expediting the time from hit to lead (H2L) and allows for rapid access to high quality leads with lower attrition rates in subsequent lead optimization (LO) campaigns toward pre-clinical candidate selection. FBLD screening by NMR involves a “consensus binding” approach where several distinct NMR experiments (DLB, STD, CPMG) are applied along with a free-state aggregation detection method (T2-CPMG) to rank the compounds for their affinity to the receptor (HRAS in this case) whilst simultaneously monitoring the solution behavior and critical quality attributes of each compound. The latter helps to eliminate artifact binders which are highly problematic. We performed a fluorine screen involving 461 compounds that were derived from a highly curated fragment library. Moreover, two-dimensional ^15N HSQC NMR was also used to validate ligand-binding sites on the target protein. […]

The target of assay [2] is T1, HRas^G12V. Description: 19F DLB (ligand-observed 19F NMR) score. It counts as binding. On the set-up: scale not given here. On the procedure: as §1, §2
as §3, with “ms. […]” for “ms.”

T1 sequence (P01112 1-166 G12V): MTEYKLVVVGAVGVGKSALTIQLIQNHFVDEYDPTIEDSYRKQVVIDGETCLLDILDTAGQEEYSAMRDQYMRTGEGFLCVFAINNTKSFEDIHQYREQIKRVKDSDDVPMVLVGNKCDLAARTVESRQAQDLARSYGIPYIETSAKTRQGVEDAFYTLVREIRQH

Turning to `O=C(C1CCCNC1)N1CCC(c2c[nH]c3cc(F)ccc23)C1` (centres unmarked) [Compound 11037], the “19F T2-CPMG Score” value on HRas^G12V [1] is 16.77. Also, the “19F DLB Score” value on HRas^G12V [2] was 2.12.
For the compound `COC(C)C1CN(C(=O)Cc2c[nH]c3cc(F)ccc23)C1` (centres unmarked) [Compound 10124, 2-(6-fluoro-1H-indol-3-yl)-1-(3-(1-methoxyethyl)azetidin-1-yl)ethan-1-one], on HRas^G12V [1], the “19F T2-CPMG Score” value came to 12.49. Besides, at HRas^G12V [2], the “19F DLB Score” value was found to be 1.82.
As to `CN(C)Cc1cc2ccc(F)cc2[nH]1` [Compound 11049], on HRas^G12V [2], the “19F DLB Score” value was “Non conclusive”.
For `O=C(C1CC1)C1CN(C(=O)Cc2c[nH]c3cc(F)ccc23)C1` [Compound 10115, 1-(3-(cyclopropanecarbonyl)azetidin-1-yl)-2-(6-fluoro-1H-indol-3-yl)ethan-1-one], the “19F T2-CPMG Score” value at HRas^G12V [1] is on record as 12.42. For the same compound, the “19F DLB Score” value on HRas^G12V [2] turned out to be 1.89.
For `O=C(C1CCNCC1)N1CCC(c2c[nH]c3cc(F)ccc23)C1` (centres unmarked) [Compound 11038], the “19F DLB Score” value on HRas^G12V [2] was 2.37.
On to `O=C(Cc1c[nH]c2cc(F)ccc12)N1C[C@H]2CC[C@@H](C1)O2` [Compound 10122], for which the “19F T2-CPMG Score” value on HRas^G12V [1] is recorded as 9.62. Also, at HRas^G12V [2], the “19F DLB Score” value is 1.68.
For the compound `O=C(CN1CCC1)c1c[nH]c2cc(F)ccc12` [Compound 10085, 2-(azetidin-1-yl)-1-(6-fluoro-1H-indol-3-yl) ethan-1-one], on HRas^G12V [1], the “19F T2-CPMG Score” value is listed as 21.45. In addition, the “19F DLB Score” value at HRas^G12V [2] was found to be 2.43.
Turning to `CCOC(=O)[C@@H]1CCCN(C(=O)Cc2c[nH]c3cc(F)ccc23)C1` [Compound 10161], at HRas^G12V [1], the “19F T2-CPMG Score” value is 7.87. The “19F DLB Score” value on HRas^G12V [2] worked out at 2.07.
On the same counts, the results for `O=C(Cc1c[nH]c2cc(F)ccc12)N1CCO[C@H](CO)C1` [Compound 10148] are 12.46 and 1.87.
On the same counts, the results for `O=C(NCCc1c[nH]c2cc(F)ccc12)c1ccc(F)cc1` [Compound 10039] are 20.33 and 0.96.
Consider `COC(=O)[C@@H]1CN(C)CCN1C(=O)Cc1c[nH]c2cc(F)ccc12` [Compound 10167], for which the “19F T2-CPMG Score” value on HRas^G12V [1] turned out to be 5.07. The “19F DLB Score” value on HRas^G12V [2] amounted to 3.62.
The matching figures for `CCOC(=O)C1CCN(C(=O)Cc2c[nH]c3cc(F)ccc23)CC1` [Compound 10132]: 13.29 and 2.01.
On the same counts, the results for `COC1CN(C(=O)Cc2c[nH]c3cc(F)ccc23)C1` [Compound 10081] are 15.91 and 2.15.
`CC(=O)N[C@@H]1CCN(C(=O)Cc2c[nH]c3cc(F)ccc23)C1` [Compound 10091]: the “19F T2-CPMG Score” value at HRas^G12V [1] stood at 7.83. In addition, at HRas^G12V [2], the “19F DLB Score” value came to 1.93.
The matching figures for `CN1CCN(CCNC(=O)Cc2c[nH]c3cc(F)ccc23)CC1` [Compound 10020]: 14.34 and 1.62.
As to `O=C(C1CCC(O)CC1)N1CCC(c2c[nH]c3cc(F)ccc23)C1` (centres unmarked) [Compound 11019], the “19F T2-CPMG Score” value on HRas^G12V [1] amounted to 12.9. Further, the “19F DLB Score” value on HRas^G12V [2] was 2.2.
On to `CC(=O)N[C@H]1CCCN(C(=O)Cc2c[nH]c3cc(F)ccc23)C1` [Compound 10139, (S)—N-(1-(2-(6-fluoro-1H-indol-3-yl)acetyl)piperidin-3-yl) acetamide], for which the “19F T2-CPMG Score” value on HRas^G12V [1] was found to be 4.54. Also, on HRas^G12V [2], the “19F DLB Score” value is 1.93.
The matching figures for `CC(c1ccncc1)N(C)C(=O)Cc1c[nH]c2cc(F)ccc12` (centres unmarked) [Compound 10100, 2-(6-fluoro-1H-indol-3-yl)-N-methyl-N-(1-(pyridin-4-yl)ethyl)acetamide]: 9.66 and 1.73.
On the same counts, the results for `O=C(c1ccccc1)N1CCC(c2c[nH]c3cc(F)ccc23)C1` (centres unmarked) [Compound 11021] are 39.09 and 3.35.
The matching figures for `COCC1(O)CN(C(=O)Cc2c[nH]c3cc(F)ccc23)C1` [Compound 10089, 2-(6-fluoro-1H-indol-3-yl)-1-(3-hydroxy-3-(methoxymethyl)azetidin-1-yl)ethan-1-one]: 9.84 and 1.89.
For the compound `CC(=O)N1CCC(C(=O)N2CCC(c3c[nH]c4cc(F)ccc34)C2)CC1` (centres unmarked) [Compound 11024], at HRas^G12V [1], the “19F T2-CPMG Score” value was determined as 9.57. Further, on HRas^G12V [2], the “19F DLB Score” value is reported as 1.89.
With `O=C(Cc1c[nH]c2cc(F)ccc12)Nc1ccc2[nH]ccc2c1` [Compound 10042], the “19F T2-CPMG Score” value at HRas^G12V [1] was found to be 37.91. Also, the “19F DLB Score” value on HRas^G12V [2] amounted to 2.72.
The matching figures for `Fc1ccc2c(C3CCNCC3)c[nH]c2c1` [Compound 11012]: 13.63 and 2.58.
On the same counts, the results for `O=C(Cc1c[nH]c2cc(F)ccc12)N1CCO[C@@H](CO)C1` [Compound 10147, (R)-2-(6-fluoro-1H-indol-3-yl)-1-(2-(hydroxymethyl)morpholino) ethan-1-one] are 19.87 and 2.3.
The matching figures for `CC(O)C1CN(C(=O)Cc2c[nH]c3cc(F)ccc23)C1` (centres unmarked) [Compound 10131, 2-(6-fluoro-1H-indol-3-yl)-1-(3-(1-hydroxyethyl)azetidin-1-yl)ethan-1-one]: 20.77 and 2.17.
On to `CC(=O)Nc1cccc(NC(=O)C(C#N)c2c[nH]c3cc(F)ccc23)c1` (centres unmarked) [Compound 11035], for which the “19F DLB Score” value on HRas^G12V [2] came to 5.34.
`O=C(O)CC(c1ccc(F)cc1F)c1c[nH]c2cc(F)ccc12` (centres unmarked) [Compound 11056]: the “19F DLB Score” value on HRas^G12V [2] is recorded as “Non conclusive”.
On the same count and under the same terms, with `O=C(C1CCCNC1)N1CCC(c2c[nH]c3cc(F)ccc23)CC1` (centres unmarked) [Compound 11048] the figure was 3.29.
On the same count and under the same terms, with `O=C(O)C(NCc1ccccc1)c1c[nH]c2cc(F)ccc12` (centres unmarked) [Compound 11060] the entry was “Non conclusive”.
Still for that read-out and setting: with `O=C(O)CC(c1cccc(F)c1)c1c[nH]c2cc(F)ccc12` (centres unmarked) [Compound 11059] the entry was “Non conclusive”; with `O=C(O)C(NCc1ccc(O)cc1)c1c[nH]c2cc(F)ccc12` (centres unmarked) [Compound 11063], “Non conclusive”.
As to `O=C1C[C@@H](c2c[nH]c3cc(F)ccc23)C(=O)N1` (single isomer, unassigned) [Compound 11040], the “19F DLB Score” value at HRas^G12V [2] came to 3.49.
On the same count and under the same terms, with `O=C(O)C(c1c[nH]c2cc(F)ccc12)N1CCC(O)CC1` (centres unmarked) [Compound 11062] the entry was “Non conclusive”; with `O=C(C1CCNC1)N1CCC(c2c[nH]c3cc(F)ccc23)CC1` (centres unmarked) [Compound 11046], 3.58; with `O=C(O)CCc1c[nH]c2cc(F)ccc12` [Compound 11050], “Non conclusive”.
On the same count and under the same terms, the result for `COc1ccc(C(CC(=O)O)c2c[nH]c3cc(F)ccc23)cc1` (centres unmarked) [Compound 11057] reads “Non conclusive”.
Turning to `O=C(O)C(NCc1cncc(Br)c1)c1c[nH]c2cc(F)ccc12` (centres unmarked) [Compound 11061], on HRas^G12V [2], the “19F DLB Score” value is “Non conclusive”.
Same read-out and setting: with `O=C(Cc1c[nH]c2cc(F)ccc12)N1CCOCC1` [Compound 10016] the figure was 4.63 and 2.64.
The same measure, in the same setting: the result for `CC1CN(C(=O)C(C#N)c2c[nH]c3cc(F)ccc23)C1` (centres unmarked) [Compound 11033] reads 6.06.
